Experimental data taken from publication PMC7413254 (Nature Communications, 2020).
Read-outs that look alike come from different tables or passages of the source.

How the values were obtained:
PfCRT^3D7 [1] = molecular target: T1, PfCRT^3D7 (Plasmodium falciparum, UniProt Q8IBZ9); assay: cell-based; assay type: cell-based; conditions: PfCRT3D7 oocytes, total [3H]CQ transport, normalised to the oocyte type control
How it was run: (§1)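 Each treatment used ten oocytes, repeated in at least four experiments on different days with oocytes from different frogs. Conditions: ND96 pH 5.5, 27.5 °C, 1.5 h; read-out by scintillation counting.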

PfCRT^Ecu1110 [2] = molecular target: T2, PfCRT^Ecu1110 (Plasmodium falciparum, UniProt Q9N623, A220S/I356L/K76T/N326D); assay: cell-based; assay type: cell-based; conditions: for Uptake of [3H]CQ (% PfCRTEcu1110 control), trans-stimulation / PfCRT-mediated [3H]CQ transport, trans-stimulation (% PfCRTEcu1110 control): PfCRTEcu1110 oocytes; for Uptake of [3H]CQ (% PfCRTEcu1110 control), trans-stimulation: total [3H]CQ transport, normalised to the oocyte type control; for PfCRT-mediated [3H]CQ transport, trans-stimulation (% PfCRTEcu1110 control): normalised to oocyte type control; for [3H]CQ transport (% PfCRTDd2 control), trans-stimulation, PfCRTEcu1110: PfCRT-mediated component (background subtracted), sheet title says normalised to PfCRTDd2 control, mean ± SEM, SEM
T2 sequence (Q9N623 whole entry A220S/I356L/K76T/N326D): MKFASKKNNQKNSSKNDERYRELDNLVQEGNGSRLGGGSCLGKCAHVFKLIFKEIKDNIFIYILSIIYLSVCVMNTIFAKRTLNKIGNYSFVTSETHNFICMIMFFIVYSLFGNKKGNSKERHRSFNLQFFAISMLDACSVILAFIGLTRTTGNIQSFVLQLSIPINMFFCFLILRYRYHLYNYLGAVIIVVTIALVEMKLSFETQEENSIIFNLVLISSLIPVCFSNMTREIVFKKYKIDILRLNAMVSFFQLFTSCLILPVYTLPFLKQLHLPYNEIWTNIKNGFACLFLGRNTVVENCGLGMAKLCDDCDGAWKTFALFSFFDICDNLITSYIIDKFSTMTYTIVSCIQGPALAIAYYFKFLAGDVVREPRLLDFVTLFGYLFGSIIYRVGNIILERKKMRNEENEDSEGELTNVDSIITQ
How it was run: (§2)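 Oocytes (ten per treatment, ≥4 independent frogs/days) were preloaded by injecting VF-6 in 25 nL ND96 at pH 5.0, 5.5, 6.0 or 7.0, or Na^+-free choline buffer, then uptake run 1.5 h, 27.5 °C, ND96 pH 5.5 by default. Internal concentrations assumed ~400 nL oocyte volume.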

PfNT1 = molecular target: T3, PfNT1 (Plasmodium falciparum, UniProt Q8IDM6); assay: cell-based; assay type: cell-based; conditions: PfNT1 oocytes, total [3H]CQ transport, normalised to the oocyte type control
T3 construct: expressed in transfected cells; host or cells: Xenopus laevis oocytes (stage V-VI), cRNA-injected
T3 sequence (Q8IDM6 whole entry): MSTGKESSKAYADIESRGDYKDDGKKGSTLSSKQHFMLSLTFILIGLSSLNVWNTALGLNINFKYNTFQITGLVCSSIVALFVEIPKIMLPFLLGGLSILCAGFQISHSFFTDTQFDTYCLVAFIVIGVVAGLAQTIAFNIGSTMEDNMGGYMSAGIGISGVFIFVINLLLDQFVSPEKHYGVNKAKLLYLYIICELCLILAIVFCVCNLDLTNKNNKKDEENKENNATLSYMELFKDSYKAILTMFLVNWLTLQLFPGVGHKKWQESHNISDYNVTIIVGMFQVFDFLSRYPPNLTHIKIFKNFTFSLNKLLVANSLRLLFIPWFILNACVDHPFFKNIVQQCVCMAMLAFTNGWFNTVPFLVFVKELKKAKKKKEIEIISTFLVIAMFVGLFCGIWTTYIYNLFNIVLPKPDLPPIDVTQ
How it was run: as §2

PfCRT^3D7 [3] = molecular target: T1, PfCRT^3D7; assay: cell-based; assay type: cell-based; conditions: PfCRT3D7 oocytes; for Uptake of [3H]CQ (% PfCRT3D7 control), trans-stimulation: total [3H]CQ transport, normalised to the oocyte type control; for PfCRT-mediated [3H]CQ transport, trans-stimulation (% PfCRT3D7 control): normalised to oocyte type control
How it was run: as §2

PfCRT^Dd2 [4] = molecular target: T4, PfCRT^Dd2 (Plasmodium falciparum, UniProt Q9N623, A220S/I356T/K76T/M74I/N326S/N75E/Q271E/R371I); assay: cell-based; assay type: cell-based; conditions: for PfCRT-mediated [3H]CQ transport, trans-stimulation (% PfCRTDd2 control): normalised to oocyte type control; for [3H]CQ transport (% PfCRTDd2 control), trans-stimulation, PfCRTDd2: PfCRT-mediated component (background subtracted), mean ± SEM, SEM
T4 sequence (Q9N623 whole entry A220S/I356T/K76T/M74I/N326S/N75E/Q271E/R371I): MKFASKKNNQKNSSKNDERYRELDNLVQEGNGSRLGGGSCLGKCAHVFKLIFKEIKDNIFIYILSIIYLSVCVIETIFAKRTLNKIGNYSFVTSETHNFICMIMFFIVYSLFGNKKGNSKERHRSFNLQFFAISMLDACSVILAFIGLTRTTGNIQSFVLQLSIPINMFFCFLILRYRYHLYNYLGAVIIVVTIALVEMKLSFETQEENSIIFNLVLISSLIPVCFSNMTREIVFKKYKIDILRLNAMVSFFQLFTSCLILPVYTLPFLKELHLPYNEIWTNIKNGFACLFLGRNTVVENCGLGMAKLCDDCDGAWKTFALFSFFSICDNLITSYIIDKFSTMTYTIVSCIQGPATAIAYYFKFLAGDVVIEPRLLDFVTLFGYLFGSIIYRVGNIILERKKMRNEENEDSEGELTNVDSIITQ
How it was run: as §2

PfCRT^Ecu1110 [5] = molecular target: T2, PfCRT^Ecu1110; assay: [3H]CQ uptake into Xenopus oocytes, cis-inhibition by unlabelled solute; assay type: cell-based; conditions: for Uptake of [3H]CQ (% PfCRTEcu1110 control), cis-inhibition / PfCRT-mediated [3H]CQ transport, cis-inhibition (% PfCRTEcu1110 control): PfCRTEcu1110 oocytes; for Uptake of [3H]CQ (% PfCRTEcu1110 control), cis-inhibition: total [3H]CQ transport, normalised to the oocyte type control; for PfCRT-mediated [3H]CQ transport, cis-inhibition (% PfCRTEcu1110 control): background [3H]CQ accumulation subtracted, normalised to oocyte type control; for [3H]CQ transport (% PfCRTEcu1110 control), cis-inhibition, PfCRTEcu1110: PfCRT-mediated component (background subtracted), sheet title says normalised to PfCRTDd2 control, mean ± SEM, SEM
How it was run: as §1

PfCRT^Dd2 [6] = molecular target: T4, PfCRT^Dd2; assay: as above; assay type: cell-based; conditions: PfCRTDd2 oocytes, background [3H]CQ accumulation subtracted, normalised to oocyte type control
How it was run: as §1

non-expressing oocytes [7] = assay type: cell-based, Xenopus laevis; conditions: non-expressing oocytes, total [3H]CQ transport, normalised to the oocyte type control
How it was run: as §2

non-expressing oocytes [8] = assay: cells; assay type: cell-based, Xenopus laevis; conditions: non-expressing oocytes, total [3H]CQ transport, normalised to the oocyte type control
How it was run: as §1

[9] = [test solute]i = 45 mM (30 mM for some solutes due to solubility)
[10] = [test solute]i = 5 mM (intracellular)
[11] = [test solute]i = 45 mM (intracellular; 30 mM for some solutes due to solubility)
[12] = [test solute]i = 5 mM (injected)

T1 sequence (Q8IBZ9 59-398): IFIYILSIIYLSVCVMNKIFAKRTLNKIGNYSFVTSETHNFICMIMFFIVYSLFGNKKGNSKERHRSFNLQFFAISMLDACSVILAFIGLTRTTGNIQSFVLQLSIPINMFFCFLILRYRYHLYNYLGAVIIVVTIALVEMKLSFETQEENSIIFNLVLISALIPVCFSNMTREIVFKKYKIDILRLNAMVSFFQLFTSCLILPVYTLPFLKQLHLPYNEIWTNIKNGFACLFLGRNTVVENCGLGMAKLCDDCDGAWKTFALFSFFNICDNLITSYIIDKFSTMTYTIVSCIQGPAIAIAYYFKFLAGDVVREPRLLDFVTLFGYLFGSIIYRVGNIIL

GGYR [GR-4]
Uptake of [3H]CQ (% PfCRT3D7 control), cis-inhibition (PfCRT^3D7 [1]; [test solute] = 0.5 mM): 102 ± 4.3 % PfCRT3D7 control
Uptake of [3H]CQ (% PfCRT3D7 control), cis-inhibition (PfCRT^3D7 [1]; [test solute] = 1 mM): 98 ± 4.8 % PfCRT3D7 control
Uptake of [3H]CQ (% PfCRT3D7 control), cis-inhibition (PfCRT^3D7 [1]; [test solute] = 2 mM): 102 ± 5.8 % PfCRT3D7 control
Uptake of [3H]CQ (% PfCRTEcu1110 control), trans-stimulation (PfCRT^Ecu1110 [2]; [test solute]i = 5 mM): 99 ± 3.2 % PfCRTEcu1110 control
Uptake of [3H]CQ (% PfCRTEcu1110 control), trans-stimulation (PfCRT^Ecu1110 [2]; [9]): 100 ± 3.2 % PfCRTEcu1110 control
PfCRT-mediated [3H]CQ transport, trans-stimulation (% PfCRTEcu1110 control) (PfCRT^Ecu1110 [2]; [10]): 97 ± 4.1 % PfCRTEcu1110 control
PfCRT-mediated [3H]CQ transport, trans-stimulation (% PfCRTEcu1110 control) (PfCRT^Ecu1110 [2]; [11]): 98 ± 4.3 % PfCRTEcu1110 control
[3H]CQ transport (% PfCRTDd2 control), trans-stimulation, PfCRTEcu1110 (PfCRT^Ecu1110 [2]; [12]): 29 ± 1.5 % PfCRTEcu1110 control
[3H]CQ transport (% PfCRTDd2 control), trans-stimulation, PfCRTEcu1110 (PfCRT^Ecu1110 [2]; [9]): 30 ± 1.2 % PfCRTEcu1110 control
Uptake of [3H]CQ (% PfNT1 control), trans-stimulation (PfNT1; [test solute]i = 5 mM): 99 ± 3.2 % PfNT1 control
Uptake of [3H]CQ (% PfNT1 control), trans-stimulation (PfNT1; [9]): 100 ± 3.7 % PfNT1 control
Uptake of [3H]CQ (% PfCRT3D7 control), trans-stimulation (PfCRT^3D7 [3]; [test solute]i = 5 mM): 100 ± 2.6 % PfCRT3D7 control
Uptake of [3H]CQ (% PfCRT3D7 control), trans-stimulation (PfCRT^3D7 [3]; [9]): 99 ± 2.6 % PfCRT3D7 control
PfCRT-mediated [3H]CQ transport, trans-stimulation (% PfCRT3D7 control) (PfCRT^3D7 [3]; [10]): 98 ± 3.3 % PfCRT3D7 control
PfCRT-mediated [3H]CQ transport, trans-stimulation (% PfCRT3D7 control) (PfCRT^3D7 [3]; [11]): 97 ± 4.2 % PfCRT3D7 control
Uptake of [3H]CQ (% PfCRTDd2 control), trans-stimulation (PfCRT^Dd2 [4]; PfCRTDd2 oocytes, [test solute]i = 45 mM (30 mM for some solutes due to solubility), total [3H]CQ transport, normalised to the oocyte type control): 103 ± 3.6 % PfCRTDd2 control
PfCRT-mediated [3H]CQ transport, trans-stimulation (% PfCRTDd2 control) (PfCRT^Dd2 [4]; [test solute]i = 5 mM (intracellular), PfCRTDd2 oocytes): 99 ± 2.9 % PfCRTDd2 control
PfCRT-mediated [3H]CQ transport, trans-stimulation (% PfCRTDd2 control) (PfCRT^Dd2 [4]; [test solute]i = 45 mM (intracellular; 30 mM for some solutes due to solubility), PfCRTDd2 oocytes): 100 ± 4.9 % PfCRTDd2 control
[3H]CQ transport (% PfCRTDd2 control), trans-stimulation, PfCRTDd2 (PfCRT^Dd2 [4]; [12]): 99 ± 2.9 % PfCRTDd2 control
[3H]CQ transport (% PfCRTDd2 control), trans-stimulation, PfCRTDd2 (PfCRT^Dd2 [4]; [9]): 100 ± 4.9 % PfCRTDd2 control
Uptake of [3H]CQ (% PfCRTEcu1110 control), cis-inhibition (PfCRT^Ecu1110 [5]; [test solute] = 0.5 mM): 78 ± 6.9 % PfCRTEcu1110 control
Uptake of [3H]CQ (% PfCRTEcu1110 control), cis-inhibition (PfCRT^Ecu1110 [5]; [test solute] = 1 mM): 65 ± 7.1 % PfCRTEcu1110 control
Uptake of [3H]CQ (% PfCRTEcu1110 control), cis-inhibition (PfCRT^Ecu1110 [5]; [test solute] = 2 mM): 53 ± 4.7 % PfCRTEcu1110 control
PfCRT-mediated [3H]CQ transport, cis-inhibition (% PfCRTEcu1110 control) (PfCRT^Ecu1110 [5]; [test solute] = 0.5 mM): 71 ± 2.5 % PfCRTEcu1110 control
PfCRT-mediated [3H]CQ transport, cis-inhibition (% PfCRTEcu1110 control) (PfCRT^Ecu1110 [5]; [test solute] = 1 mM): 59 ± 2.4 % PfCRTEcu1110 control
PfCRT-mediated [3H]CQ transport, cis-inhibition (% PfCRTEcu1110 control) (PfCRT^Ecu1110 [5]; [test solute] = 2 mM): 48 ± 3.1 % PfCRTEcu1110 control
[3H]CQ transport (% PfCRTEcu1110 control), cis-inhibition, PfCRTEcu1110 (PfCRT^Ecu1110 [5]; [test solute] = 1 mM): 19 ± 0.1 % PfCRTEcu1110 control
[3H]CQ transport (% PfCRTEcu1110 control), cis-inhibition, PfCRTEcu1110 (PfCRT^Ecu1110 [5]; [test solute] = 2 mM): 15 ± 0.6 % PfCRTEcu1110 control
PfCRT-mediated [3H]CQ transport, cis-inhibition (% PfCRTDd2 control) (PfCRT^Dd2 [6]; [test solute] = 0.5 mM): 71 ± 2.9 % PfCRTDd2 control
PfCRT-mediated [3H]CQ transport, cis-inhibition (% PfCRTDd2 control) (PfCRT^Dd2 [6]; [test solute] = 1 mM): 58 ± 4.2 % PfCRTDd2 control
PfCRT-mediated [3H]CQ transport, cis-inhibition (% PfCRTDd2 control) (PfCRT^Dd2 [6]; [test solute] = 2 mM): 40 ± 2.1 % PfCRTDd2 control
Uptake of [3H]CQ (% non-expressing oocyte control), trans-stimulation (non-expressing oocytes [7]; [test solute]i = 5 mM): 100 ± 2.7 % non-expressing oocyte control
Uptake of [3H]CQ (% non-expressing oocyte control), trans-stimulation (non-expressing oocytes [7]; [9]): 97 ± 2.5 % non-expressing oocyte control
Uptake of [3H]CQ (% non-expressing oocyte control), cis-inhibition (non-expressing oocytes [8]; [test solute] = 0.5 mM): 99 ± 5.2 % non-expressing oocyte control
Uptake of [3H]CQ (% non-expressing oocyte control), cis-inhibition (non-expressing oocytes [8]; [test solute] = 2 mM): 100 ± 3.6 % non-expressing oocyte control
